Measurements as given in US5968751A, “Method for detecting the presence of protein C antibody in a fluid sample” (The Scripps Research Institute, priority 1997, dated 1999).
pIC50: −log10 of the molar value. Read-outs that look alike come from different tables or passages of the source. No end group written: not given here.

Assays:
Assay type in all cases: biochemical
Factor IXa = Factor IXa (Homo sapiens, UniProt P00740); assay: Factor IXa-1 Stage clotting assay
Protocol: The Factor IXa-1 Stage assay was conducted essentially as the Factor Xa-1 Stage clotting assay above, except that Factor Xa was omitted, and Factor IXa was added in its place. In that assay, the IC50 for peptides X404-418, X415-429, IX395-409, IX400-414, IX315-330, and IX321-335 were 50, 30, 25, 50, 30 and 30.

tenase = biological target: T1, tenase (Homo sapiens, UniProt P00740); assay: tenase assay (Factor Xa generation); details: read-out: IC50 inhibition of tenase
T1 construct: 30 μl of 3.5 nM factor IXaβ (Enzyme Research Labs) in BBS+OV; purchased Enzyme Research Labs (factor IXaβ, factor X); Armour Pharmaceutical, Chicago (Monoclate P)
T1 sequence (P00740 47-191): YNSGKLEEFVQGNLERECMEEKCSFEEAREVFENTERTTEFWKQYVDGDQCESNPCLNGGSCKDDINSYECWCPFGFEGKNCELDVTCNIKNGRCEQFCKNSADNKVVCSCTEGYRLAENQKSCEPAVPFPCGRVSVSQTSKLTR
T1 sequence (P00740 227-461): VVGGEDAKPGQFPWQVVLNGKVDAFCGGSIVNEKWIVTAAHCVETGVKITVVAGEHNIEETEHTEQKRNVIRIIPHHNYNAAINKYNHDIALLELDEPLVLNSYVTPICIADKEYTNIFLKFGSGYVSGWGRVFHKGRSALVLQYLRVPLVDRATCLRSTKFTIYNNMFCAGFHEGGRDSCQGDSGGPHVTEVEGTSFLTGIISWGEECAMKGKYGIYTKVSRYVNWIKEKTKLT
Protocol: The tenase assay was conducted both in the presence and absence of Factor VIIIa. The procedure for the tenase assay varied depending on this variable and is described hereafter.
Peptides prepared in Example 1 were dissolved in water and then 1/2 into 50 mM Barbital, 200 mM NaCl, 0.2% NaN3, 2.5 mg/ml Ovalbumin (5 times recrystallized, salt free, from American Biorganics Inc., New York, pH=7.5). […]. Before using them, they were made 250 μM into BBs +1.25 mg/ml Ovalbumin (BBS+OV) containing CaCl2 for a final concentration of 25 mM and they were preincubated for 10 minutes at 37° C. These vesicles were allowed to cool to room temperature before being added to the reaction mixture. Monoclate P (Armour Pharmaceutical, Chicago) 114 U VIII:C/ml frozen in water was thawed at 37° C. and immediately diluted to 6 U/ml into BBS+OV (22° C.). A 0.35 nM thrombin-containing solution (Enzyme Research Labs., Southbend, Ind.) was prepared by admixing 1/100 volume of stock solution containing 35 nM in BBS+OV, and maintained for 3 minutes at 22° C. Thrombin activity was stopped by adding 1/100 volume of a 50 μM stock solution in 1 mM HCl of Phe-Pro-Arg-Chloromethyl ketone (PPACK, Bachem Feinchmikallen AG, Bubendorf, Switzerland). […] The thrombin treated Monoclate P was used immediately in the Xa generation assay.
For the assay, 30 μl of peptide dilutions or BBS+OV as 0 μM peptide control were admixed with 30 μl of thrombin-treated Monoclate P and maintained 10 minutes at 22° C. Then 30 μl of Cacl2 -phospholipid vesicles prepared as described above were added, followed immediately by 30 μl of 3.5 nM factor IXaβ (Enzyme Research Labs) in BBS+OV. The reaction was started by adding 30 μl of 250 nM factor X (Enzyme Research Labs) in BBS+OV. All reagents were at 22° C.
Aliquots of 20 μl were drawn at time 0, 1, 2, 3, 4 and 5 minutes of maintenance at 22° C. and diluted to 160 μl of 50 mM TrisHCl, 100 mM NaCl, 5 mM EDTA and 0.1 mg/ml Ovalbumin pH=8.0. Once all aliquots were drawn, 20 μl 2.0 mM S-2765 were added and the increase of A 405 at 22° C. was recorded in a model EL 312 Microplate Biokinetics Reader (BIO-TEK Instruments Inc., Vermont).
No amidolytic activity was observed when factor X was omitted from the reaction mixture.
Phospholipid vesicles prepared as described above were admixed with BBS+OV containing CaCl2 to obtain final concentrations of 312.5 μM vesicles and 20 mM CaCl2, and were premaintained for 10 minutes at 37° C. Before admixing, all the reagents were maintained for 5 minutes in a 37° C. waterbath.
For the assay, 100 μl of the phospholipid CaCl2 mix were admixed with 100 μl of peptide dilutions in BBS+OV or BBS+OV (as 0 μM peptide control) and 25 μl of 100 nM factor IXaβ in BBS+OV. The reaction was started immediately by adding 25 μl of 10 μM factor X in BBS+OV. All experiments were done at 37° C.
Aliquots of 40 μl were drawn at time 0, 5, 10, 15, 20 and 25 minutes of incubation at 37° C. and diluted to 140 μl 50 mM TrisHCl, 100 mM NaCl, 10 mM EDTA, and 1.25 mg/ml Ovalbumin pH=8.0. Once all aliquots were drawn, 20 μl 20.0 mM S-2765 were added and the increase of A 405 at 22° C. was recorded in a model EL 312 Microplate Biokinetics Reader.

Factor Xa = biological target: T2, Factor Xa (Homo sapiens, UniProt P00742); assay: Factor Xa clotting activity in NHP without added APC (Factor Xa-1 Stage clotting assay)
T2 construct: purchased Enzyme Research Laboratories, Southbend, Ind
T2 sequence (P00742 41-179 limits assumed): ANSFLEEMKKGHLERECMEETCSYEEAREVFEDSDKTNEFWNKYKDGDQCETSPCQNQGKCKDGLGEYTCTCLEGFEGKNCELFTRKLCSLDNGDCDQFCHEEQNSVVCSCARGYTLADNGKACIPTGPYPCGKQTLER
T2 sequence (P00742 235-488 limits assumed): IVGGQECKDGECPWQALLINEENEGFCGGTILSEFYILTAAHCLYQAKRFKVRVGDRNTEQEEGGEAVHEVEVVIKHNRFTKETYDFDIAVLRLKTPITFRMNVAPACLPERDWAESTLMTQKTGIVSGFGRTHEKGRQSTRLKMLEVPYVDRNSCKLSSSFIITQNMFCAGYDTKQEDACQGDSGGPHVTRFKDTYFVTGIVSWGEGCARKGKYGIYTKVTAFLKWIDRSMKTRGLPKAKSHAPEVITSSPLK

APC = APC (Homo sapiens, UniProt P04070); assay: APTT and Xa-1-stage coagulation assays, inhibition of APC anticoagulant activity; design: Protein C consists of a 155 amino acid residue light chain and a 262 amino acid residue heavy chain; from tissue; host or cells: human plasma factor IX concentrate; details: read-out: IC90 ** μM (concentration of peptide that inhibits 90% of APC anticoagulant activity)
APC, sequence (P04070 43-197 limits assumed): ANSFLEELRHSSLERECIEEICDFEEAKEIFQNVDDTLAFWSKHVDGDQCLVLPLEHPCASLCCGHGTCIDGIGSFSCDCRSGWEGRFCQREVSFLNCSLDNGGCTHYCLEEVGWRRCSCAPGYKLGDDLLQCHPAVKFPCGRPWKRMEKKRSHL
APC, sequence (P04070 212-450 limits assumed): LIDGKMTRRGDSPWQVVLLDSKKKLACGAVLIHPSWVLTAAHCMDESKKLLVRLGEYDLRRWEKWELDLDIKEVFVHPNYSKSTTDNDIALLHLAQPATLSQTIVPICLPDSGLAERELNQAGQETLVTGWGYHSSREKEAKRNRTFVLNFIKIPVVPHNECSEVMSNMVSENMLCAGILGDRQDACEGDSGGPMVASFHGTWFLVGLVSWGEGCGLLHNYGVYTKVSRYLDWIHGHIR
Protocol: The effect of the synthetic peptides on APC anticoagulant activity were determined using the APTT assay in the presence of either normal citrate anticoagulated plasma (NHP) or protein S depleted plasma (PSDP). The assays were performed essentially as described. See Marlar et al., Blood, 59:1067-1072 […]; Suzuki et al., J. Biol. Chem., 258:163-168 (1983); Gruber et al., Blood, 73:639-642 (1989); Ohlin et al., Biochem., 29:644-651 (1990). NHP was purchased from George King Bio-Medical, Inc. (Overland Park, Kans.). PSDP was prepared from a normal human citrate-anticoagulated plasma pool from ten healthy donors. Protein S was immunodepleted from the NHP by immunoaffinity chromatography of NHP over an anti-protein S antibody column to form PSDP. The anti-protein S antibody column was prepared by coupling 100 mg of a monoclonal, high-affinity, calcium-independent anti-PS antibody, designated S7, to 30 ml of CNBr-activated Sepharose 4B (Pharmacia) as described in Example 2cl).
For the APTT assay, APC was prepared as described in Example 2c2). […] The concentration of the APC used in the assay was initially optimized with respect to the sensitivity of the assay towards APC-induced prolongation of clotting time compared to clotting time without APC.
Once the optimal concentration of APC was determined, peptides from the heavy and light chains of PC and control scrambled peptides listed below in Example 5a2) in Tables 6 and 7 were then separately admixed for a final concentration of 500 μM with 10 nM APC in 100 μl of TBS-BSA at pH 7.4 to form peptide-APC admixtures. Peptides were prepared as described in Example 1. The resulting admixtures were maintained for ten minutes at 37° C. Separate aliquots of peptides maintained under the same conditions in the absence of APC served as controls for the inhibitory effect of synthetic peptides on APC anticoagulant activity. After the maintenance period, 100 μl of NHP and 100 μl APTT-reagent Thrombosil (Ortho Diagnostics, Raritan, N.J.) were admixed into each peptide admixture and maintained for 200 seconds at 37° C. to form a pre-coagulation admixture. In some experiments, PSDP was used in the place of NHP to determine the effect of Protein S on the assay system. Coagulation was then initiated by the admixture of 100 μl of 30 mM CaCl2 in TBS prewarmed to 37° C. to each of the pre-coagulation admixtures. The time for clot formation was measured by an Electra 700 Automatic Coagulation Timer (Medical Laboratory Automation, Inc., Mount Vernon, N.Y.). Each peptide's effect was determined in duplicate.
For peptides at a concentration of 500 μM that inhibited at least 50% of APC anticoagulant activity, analysis of dose-response was subsequently conducted.
For testing the inhibition of the synthetic peptides on APC activity described above, Xa-1-stage coagulation assays were also performed as described. See Seegers et al., Thrombosis Res., 13:233-243 (1978); Marlar et al., supra; and Walker et al., J. Biol. Chem., 265:1484-1489 (1990).

Factor IXa, sequence (P00740 47-191 limits assumed): as the sequence (P00740 47-191) above
Factor IXa, sequence (P00740 227-461 limits assumed): as the sequence (P00740 227-461) above

Row | Substance | pIC50 (Factor IXa) | pIC50 (tenase; presence of Factor VIIIa) | pIC50 (Factor Xa) | pIC50 (tenase; absence of VIIIa) | IC90 (APC) [µM]
1 | ARKGKYGIYTKVTAF-NH2 [X404-418, Ala-Arg-Lys-Gly-Lys-Tyr-Gly-Ile-Tyr-Thr-Lys-Val-Thr-Ala-Phe] | 4.30 | ~3.82 | 4.30 | – | –
2 | EKGRQSTRLKMLEVPY-NH2 [X329-344, Glu-Lys-Gly-Arg-Gln-Ser-Thr-Arg-Leu-Lys-Met-Leu-Glu-Val-Pro-Tyr] | – | – | 3.30 | – | –
3 | GKGQPSVLQVVNLPI-NH2 [PT473-487, Gly-Lys-Gly-Gln-Pro-Ser-Val-Leu-Gln-Val-Val-Asn-Leu-Pro-Ile] | – | – | 4.60 | – | –
4 | HKGRSALVLQYLRVPL-NH2 [IX315-330, His-Lys-Gly-Arg-Ser-Ala-Leu-Val-Leu-Gln-Tyr-Leu-Arg-Val-Pro-Leu] | 4.52 | ~5.70 | – | 4.22 to 4.40 | –
5 | KVSRYVNWIKEKTKL-NH2 [IX400-414, Lys-Val-Ser-Arg-Tyr-Val-Asn-Trp-Ile-Lys-Glu-Lys-Thr-Lys-Leu] | 4.30 | 3.85 to 4.00 | – | – | –
6 | LVLQYLRVPLVDRAT-NH2 [IX321-335, Leu-Val-Leu-Gln-Tyr-Leu-Arg-Val-Pro-Leu-Val-Asp-Arg-Ala-Thr] | 4.52 | 3.85 to 4.00 | – | – | –
7 | NLKETWTANVGKGQP [PT463-478] | – | – | < 3.30 | – | –
8 | QVVNLPIVERPVSKD-NH2 [PT481-495, Gln-Val-Val-Asn-Leu-Pro-Ile-Val-Glu-Arg-Pro-Val-Ser-Lys-Asp] | – | – | < 3.30 | – | –
9 | VLNFIKIPVVPHNEC-NH2 [PC317-331] | – | – | – | – | 500
10 | VTAFLKWIDRSMKTR-NH2 [X415-429, Val-Thr-Ala-Phe-Leu-Lys-Trp-Ile-Asp-Arg-Ser-Met-Lys-Thr-Arg] | 4.52 | ~4.35 | 3.94 | – | –
11 | YGFYTHVFRLKKWIQ-NH2 [PT557-571, Tyr-Gly-Phe-Tyr-Thr-His-Val-Phe-Arg-Leu-Lys-Lys-Trp-Ile-Gln] | – | – | 4.30 | – | –
12 | YGIYTKVSRYVNWIK-NH2 [IX395-409, Tyr-Gly-Ile-Tyr-Thr-Lys-Val-Ser-Arg-Tyr-Val-Asn-Trp-Ile-Lys] | 4.60 | ~5.22 | – | 4.22 to 4.40 | –
